Test systems include SF-295 CNS; ACHN renal; HCT-116 colon; OVCAR-3 ovarian; RPMI-8226 leukemia; SW-620 colon; 786-0 renal; XF 498 CNS; EKVX NSCLC; NCI-H522 lung.
What all share (assay): inhibition of tumour cell growth, NCI panel, 48 h

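Five concentrations, 48 hours, 96-well plates. Abbreviation: GI50, concentration required for 50% inhibition of growth. At the TGI there is no net growth.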

For `O=C1C(=O)N(C2C3CC4CC(C3)CC2C4)C(=O)C(=O)C1c1nc2ccccc2o1` (configuration not stated), the TGI was above 100 µM in the experiment on SF-295 CNS; above 100 µM in the experiment with ACHN renal; above 100 µM in the experiment on HCT-116 colon; 54 µM in the experiment on OVCAR-3 ovarian; above 100 µM in the experiment on RPMI-8226 leukemia; above 100 µM with SW-620 colon. The TGI in the experiment on 786-0 renal, with XF 498 CNS and with EKVX NSCLC was above 100 µM in each case.
Regarding `CCOC(=O)N1C2C=C(C)C(C3C(C)C(=O)N31)N(C(=O)c1ccccc1)O2` (configuration not stated), the TGI in the experiment on SF-295 CNS, in the experiment with ACHN renal, with HCT-116 colon, in the experiment on OVCAR-3 ovarian, in the experiment with RPMI-8226 leukemia and in the experiment with SW-620 colon was above 100 µM each time. Besides, the TGI in the experiment on 786-0 renal, in the experiment on XF 498 CNS and with EKVX NSCLC was above 100 µM each time.
On to `N#Cc1ccccc1NC(=O)c1ccccc1`, for which the TGI in the experiment with SF-295 CNS, in the experiment on ACHN renal, in the experiment on HCT-116 colon, in the experiment with OVCAR-3 ovarian, in the experiment on RPMI-8226 leukemia and in the experiment on SW-620 colon was above 100 µM throughout. In addition, the TGI in the experiment on 786-0 renal, in the experiment with XF 498 CNS and in the experiment on EKVX NSCLC was above 100 µM each time.
With `CCOc1ccc(NC(=O)CC2SC(N)=NC2=O)cc1` (configuration not stated), the TGI in the experiment on SF-295 CNS, in the experiment with ACHN renal, in the experiment with HCT-116 colon, in the experiment on OVCAR-3 ovarian, with RPMI-8226 leukemia and with SW-620 colon was above 100 µM in each case. The TGI in the experiment with 786-0 renal, in the experiment on XF 498 CNS and with EKVX NSCLC was above 100 µM throughout.
Consider `FC(F)(F)c1ccc2nc(Nc3ccc(Cl)c(Cl)c3)c(-c3ccccc3)nc2c1`, for which the TGI in the experiment on SF-295 CNS, with ACHN renal, in the experiment with HCT-116 colon, in the experiment with OVCAR-3 ovarian, in the experiment with RPMI-8226 leukemia and with SW-620 colon was above 100 µM throughout. Moreover, the TGI in the experiment with 786-0 renal, in the experiment with XF 498 CNS and with EKVX NSCLC was above 100 µM each time.
On to `COc1cc(Oc2c(O)c(C)c(OC)c(C(C)=O)c2O)c(C(C)=O)c(O)c1C`, for which the TGI with NCI-H522 lung was 77.9 µM; in the experiment with SF-295 CNS it was above 100 µM; in the experiment with ACHN renal, above 100 µM; with HCT-116 colon, above 100 µM; in the experiment on OVCAR-3 ovarian it was above 100 µM; with SW-620 colon it was above 100 µM. The TGI in the experiment on 786-0 renal and in the experiment with XF 498 CNS was above 100 µM throughout.
For `O=C1CC2C(=O)N(Cc3ccccc3)C1C(S(=O)(=O)c1ccccc1)C2S(=O)(=O)c1ccccc1` (configuration not stated), the TGI in the experiment on NCI-H522 lung is 1.38 µM; in the experiment on SF-295 CNS, 37.4 µM; in the experiment with ACHN renal, 3.24 µM; in the experiment with HCT-116 colon, 15.9 µM; in the experiment with OVCAR-3 ovarian it was 3.65 µM; with RPMI-8226 leukemia, 18.4 µM. In addition, the figures for the TGI in the experiment on SW-620 colon, in the experiment with 786-0 renal and in the experiment on XF 498 CNS were 1.69 µM, 9.68 µM and 3.53 µM, respectively.
For `COc1cc(/C=C(/c2ccccc2)[N+](=O)[O-])c(OC)c2c1OCO2`, the GI50 with NCI-H522 lung is 1590 nM; in the experiment with SF-295 CNS it was 2780 nM; with ACHN renal, 1710 nM; with HCT-116 colon it was 1300 nM; in the experiment with OVCAR-3 ovarian, 1320 nM; with RPMI-8226 leukemia, 459 nM. The GI50 in the experiment with SW-620 colon is 1520 nM; with 786-0 renal it was 1620 nM; in the experiment with EKVX NSCLC, 1690 nM. Also, the TGI in the experiment with NCI-H522 lung was found to be 4.03 µM; with SF-295 CNS it was 7.88 µM; in the experiment with ACHN renal, 3.08 µM; with HCT-116 colon, 3 µM; in the experiment on OVCAR-3 ovarian, 2.63 µM; with RPMI-8226 leukemia, 4.1 µM. Besides, the TGI came to 3.56 µM with SW-620 colon, 3.05 µM in the experiment on 786-0 renal and 3.32 µM with EKVX NSCLC.
In the case of `CCC1CN2CCc3cc(OC)c(OC)cc3C2CC1CC1c2cc(OC)c(OC)cc2CCN1C(=O)CNC(=O)OC(C)(C)C` (configuration not stated), the TGI in the experiment with SF-295 CNS worked out at 34.4 µM; with ACHN renal it was 54.4 µM; with OVCAR-3 ovarian it was 61.7 µM; with RPMI-8226 leukemia, 48.6 µM; in the experiment on SW-620 colon it was 29.1 µM; with 786-0 renal, 21.2 µM. Moreover, the results for the TGI with XF 498 CNS and in the experiment on EKVX NSCLC were 28.9 µM and 32.9 µM, respectively.
Take `CC(C)=CC(=O)CC(=O)C(=O)Nc1ccc(Cl)c(Cl)c1`: the TGI in the experiment on NCI-H522 lung, in the experiment with SF-295 CNS, with ACHN renal, in the experiment on HCT-116 colon, in the experiment with OVCAR-3 ovarian and with RPMI-8226 leukemia was above 100 µM throughout. In addition, the TGI in the experiment on SW-620 colon, in the experiment on 786-0 renal and in the experiment on EKVX NSCLC was above 100 µM each time.
For the molecule `CCSc1nc(COC(=O)NC)c(COC(=O)NC)n1C`, the TGI in the experiment on NCI-H522 lung is above 95.4 µM; with SF-295 CNS, above 100 µM; in the experiment with ACHN renal, 35.5 µM; in the experiment on HCT-116 colon it was above 100 µM; in the experiment with OVCAR-3 ovarian it was above 100 µM; in the experiment with RPMI-8226 leukemia it was above 100 µM. The TGI with SW-620 colon, in the experiment with 786-0 renal and in the experiment on EKVX NSCLC was above 100 µM in each case.
As to `O=C(O)CCC1CCc2cccc3occ1c23` (configuration not stated), the TGI in the experiment on NCI-H522 lung, in the experiment on SF-295 CNS, with ACHN renal, in the experiment with HCT-116 colon, with OVCAR-3 ovarian and in the experiment on RPMI-8226 leukemia was above 100 µM throughout. The TGI in the experiment with SW-620 colon, with 786-0 renal and with EKVX NSCLC was above 100 µM throughout.
`COC1CC(n2cnc3c(N)ncnc32)OC1CO` (configuration not stated): the TGI in the experiment with NCI-H522 lung, in the experiment with SF-295 CNS, in the experiment on ACHN renal, in the experiment with HCT-116 colon, with OVCAR-3 ovarian and with RPMI-8226 leukemia was above 100 µM throughout. For the same molecule, the TGI with SW-620 colon, in the experiment with 786-0 renal and in the experiment on XF 498 CNS was above 100 µM in each case.
On to `CN(C)c1ccc(C(N)=O)cn1`, for which the TGI with NCI-H522 lung, in the experiment with SF-295 CNS, with ACHN renal, in the experiment on HCT-116 colon, in the experiment with OVCAR-3 ovarian and in the experiment on RPMI-8226 leukemia was above 100 µM throughout. In addition, the TGI with SW-620 colon, in the experiment with 786-0 renal and with EKVX NSCLC was above 100 µM in each case.
Take `O=C(Nc1ccc2c(c1)oc(=O)c1ccccc12)C(Cl)Cl`: the TGI in the experiment on NCI-H522 lung was above 100 µM; in the experiment with SF-295 CNS, above 100 µM; in the experiment on ACHN renal, above 100 µM; in the experiment with HCT-116 colon, above 100 µM; in the experiment on OVCAR-3 ovarian, 73.8 µM; in the experiment on RPMI-8226 leukemia, 32.5 µM. Further, the TGI in the experiment with SW-620 colon, in the experiment with 786-0 renal and with EKVX NSCLC was above 100 µM each time.
